Reference: patent US12624008B2, “4-((6-oxopyrimidin-1(6H)-yl)methyl)benzoic acid as an inducer of Z A1AT secretion for treating AATD” (CENTESSA PHARMACEUTICALS (UK) LIMITED, priority 2020, dated 2026)

Tested on: Z A1AT
Experiment: Z A1AT cell secretion assay using HEK-Z cells (ELISA of supernatant)
Type: cell-based, human
Conditions: HEK-Z cells, 10, 33, 100 and 333 nM, 48 h, FIG. 1 y-axis in ng/ml
Protocol: HEK-Z cells, a human embryonic kidney cell line stably transfected with the human Z AAT gene, were plated into 96 well plates (3.0×10^5 cells/ml with 200 μl of media/well) overnight at 37° C. in a humidified atmosphere containing 5% CO2. Following incubation cells were washed with 200 μl serum-free media three times and media was replaced with treatments in quadruplicate using vehicle, 10 μM suberanilohydroxamic acid (SAHA) or 4-((6-oxopyrimidin-1(6H)-yl)methyl)benzoic acid (at concentrations of 10, 33, 100 and 333 nM) for 48 h in a 37° C. incubator in a final volume of 200 μl. At the end of the incubation step the supernatants were removed from the wells, centrifuged at 1000×g at 4° C. for 10 min and were assayed for Z A1AT levels by ELISA (Human Serpin A1/α1-antitrypsin duo set ELISA, R&D Systems, DY1268) per manufacturer's instructions.
Briefly, a 96 well plate was coated with human A1AT capture antibody overnight at room temperature (1:180 dilution from stock, 100 μl final volume/well). […] After which, 50 μl stop solution (2M H2SO4) was added and optical density (OD) of each well was read at 450 nm with 570 nm blank subtracted from each well using a microplate reader. A 4 parameter logistic curve was constructed using GraphPad Prism 8 and Z A1AT concentrations were determined in each sample by interpolation from a standard curve and multiplying by the appropriate dilution factor.

O=C(O)c1ccc(Cn2cnccc2=O)cc1 [4-((6-oxopyrimidin-1(6H)-yl)methyl)benzoic acid]
secretion of Z A1AT (concentration of Z A1AT in the cell supernatant): increased in a dose dependent manner
